Usually IC50 stands for the point on the concentration scale where inhibition reaches its midpoint.

Experiment [1] concerns mouse derived MYC-induced HCC EC4 line. As to the kind of experiment: HCC EC4 proliferation / cell viability (FIG. 8, 9, 12A). The following applies: for cell viability as compared to FSG67: HCC EC4, 1-100 μM dose, two days (48 hours) post treatment. The format is cell-based. As for the experimental part:
(§1) Cell Counting. A volume of cells was removed from culture medium and mixed with an equal volume of 0.4% Trypan blue stain. Then, 10 μL were taken out and placed into a hemocytometer for cell counting. Viable cell counts were used as a measure of cell proliferation.

Experiment [2] relates to fatty acids and PGs. As to the kind of experiment: Lipid profile after TOFA or FSG67 (FIG. 11). Details: species or system mouse. As for the experimental part:
DESI-MSI was used for generating two-dimensional chemical maps of 16 μm-thick tissue sections in order to assess the lipid profiles of tissue. The tissue samples were snap-frozen in liquid nitrogen and stored at −80° C. before processing. The frozen samples were cut into 16 μm sections at −21° C. using a cryomicrotome and thaw-mounted onto microscope slides. The slides were stored at −80° C. Prior to analysis, the slides were dried under a vacuum in a desiccator for approximately 20 minutes. A laboratory-built DESI-MSI source coupled to an LTQ-Orbitrap-XL mass spectrometer (Thermo Fisher Scientific) was utilized, and DESI-MSI was performed in the negative ion mode at m/z 90-1,000 with a spatial resolution of 200 μm (FIG. S1). The Orbitrap was used as the mass analyzer while set to 60,000 resolving power. Mouse tissue samples were imaged by this method using dimethylformamide and acetonitrile (1:1) as a solvent system at a flow rate of 0.5 μL/min. The N2 pressure was set to 175 psi. In DESI-MSI, charged solvents are sprayed onto the tissue, resulting in molecules, such as metabolites and lipids, to be dissolved and extracted from the tissue surface, then transferred into a mass spectrometer for measurement of the mass-to-charge (m/z) ratios. The software ImgGenerator (freeware, www.msimaging.net/) was used for converting raw files into 2D images. Spatially accurate ion images were assembled using BioMap software (freeware, www.maldi-msi.org/). After DESI-MSI, the same tissue section was subjected to a standard H&E staining for histopathologic evaluation using light microscopy. DESI-MS ion images were compared with optical microscopy images of the same-tissue H&E-stained tissue sections for delineation of tumor foci. Tandem MS analyses were performed using both the Orbitrap and the linear ion trap for mass analysis to confirm lipid identity. The LipidMaps database (www.lipidmaps.org/) was also used to assist in lipid identification.

Experiment [3] has as its system human MYC-induced Burkitt's Lymphoma line P493. The experiment in a line: BCL P493 cell viability (FIG. 10A, 12C). The format is cell-based. The following applies: BCL P493, 1-100 μM dose, five days post treatment. As for the experimental part:
as §1
(§2) All RCC cell lines were maintained in Dulbecco's Modified Eagle Medium (DMEM) supplemented with 10% fetal bovine serum (FBS), 1% L-glutamine, 1% sodium pyruvate, 1% nonessential amino acids, and Antibiotic-Antimycotic. All lymphoma lines were maintained in RPMI 1640 medium supplemented with 10% FBS, 50 μM β-mercaptoethanol, and […]

Experiment [4] deals with mouse-derived MYC-induced RCC E28 line. The experiment in a line: RCC E28 proliferation / cell viability (FIG. 7, 10B, 12B). The format is cell-based. The method, then:
as §1, §2

In experiment [5] the test system is diet-induced obese mice. The following applies: cited from earlier work.
In experiment [6] the target is glycerol 3-phosphate acyltransferase (GPAT). The following applies: inhibitor of GPAT; cited from earlier work.
Experiment [7] has as its system mouse-derived T-ALL line. The experiment in a line: Response in mouse-derived T-ALL line at high, low or no MYC (FIG. 6). The format is cell-based. Conditions: 1-100 μM; MYC levels controlled by doxycycline-off system. As for the experimental part: as §1, §2
Experiment [8] deals with MYC-induced tumors. The experiment in a line: MYC-induced tumors in xenograft and primary mouse models. The format is in vivo. An excerpt: A Tet system was used to conditionally activate MYC, in the liver, kidney, lymphocyte, and lung tissue of transgenic mice. In this system, […] In the absence of tetracycline, transcription of the oncogene is activated. Oncogene expression was activated in mice by removal of doxycycline (a stable analog of tetracycline) in the mice's drinking water. All animal studies were approved by the Stanford University Administrative Panel on Laboratory Animal Care (APLAC).

Experiment [9] has as its system human lymphoma lines. The experiment in a line: Proliferation of human lymphoma lines (FIG. 5). Conditions: 1-100 μM, 24 hours, various human lymphoma lines. The format is cell-based. As for the experimental part:
as §1, §2

The structures appear in SMILES notation. Entries after “also recorded” stand apart in the source; their conditions may differ.

On to `[2H]c1c([2H])c([2H])c(C(=O)O)c(NS(=O)(=O)CCCCCCCCC)c1[2H]` [GFZ1.1], for which, in experiment [1], the “cell viability as compared to FSG67” value is given as “significant difference in cell viability”.

`CCCCCCCCCCCCCCOc1ccc(C(=O)O)o1` [TOFA]: in [2], the “depletion of lipids (fatty acids, PGs)” value is given as “depletes all fatty acids”.

On to `[2H]C([2H])([2H])C([2H])([2H])C([2H])([2H])C([2H])([2H])C([2H])([2H])C([2H])([2H])C([2H])([2H])C([2H])([2H])C([2H])([2H])S(=O)(=O)Nc1ccccc1C(=O)OC` [GFZ1.2], for which the “cell viability as compared to FSG67” value in [1] was “significant difference in cell viability”.

Consider `CCCCCCCCCS(=O)(=O)Nc1ccccc1C(=O)OC` [GFZ1.5], for which the “cell viability as compared to FSG67” value is “significant difference in cell viability” in experiment [3]; “significant difference in cell viability” in experiment [4] (RCC E28, 1-100 μM dose, two days (48 hours) post treatment); “significant difference in cell viability” in [1].

Turning to `CCCCCCCCCS(=O)(=O)Nc1ccccc1C(=O)O` [FSG67, 2-(Nonylsulfonamido) benzoic acid], in experiment [5], the “body weight and adiposity” value was “decrease body weight and adiposity”; the “energy utilization as fatty acid oxidation” value is recorded as “enhance energy utilization as fatty acid oxidation”; the food intake entry is listed as “reduce food intake”; the hepatic steatosis entry is listed as “reverse hepatic steatosis”. Besides, the insulin sensitivity result in [5] is given as “enhance insulin sensitivity”. In addition, in [6], the IC50 was 24 µM. In addition, in [2], the “depletion of lipids (fatty acids, PGs)” value was “depletes only PGs” and the “levels of fatty acids upstream of GPAT (oleate)” value is on record as “not perturbing levels of fatty acids that are upstream of GPAT”. Also, in experiment [7], the “therapeutic response, high MYC vs. low or no MYC” value is reported as “induces therapeutic response in high MYC (no dox) vs. low or no MYC; also recorded: induced a therapeutic response in high MYC (no dox)”. In [8], the MYC-induced tumorigenesis entry was “MYC-induced tumorigenesis was blocked”, the metabolic changes result is reported as “metabolic changes were suppressed” and the tumor regression result was “tumors regressed”. For the same compound, the “RCC E28 proliferation” value in [4] (1-100 μM) is “suppresses RCC E28 proliferation”. The cell proliferation entry in [9] is listed as “suppresses cell proliferation”. For the same compound, the “HCC EC4 proliferation” value in experiment [1] (1-100 μM) was “suppresses HCC EC4 proliferation”.

The values are drawn from US11702394B2, “Inhibitors of phospholipid synthesis and methods of use” (The Board of Trustees of the Leland Stanford Junior …, priority 2018, dated 2023).
